This is an account of results in patent US10004785B2, “LKKTET and/or LKKTNT peptide compositions which are lyophilized or in a form capable of being lyophilized” (RegeneRX Biopharmaceuticals, Inc., priority 2005, dated 2018).

Experiment [1] deals with Human corneal epithelial cells. Put plainly: colorimetric annexin-based cell death assay (apoptosis). Conditions: 1 mcg/ml Tβ4, 3 and 24 hour time points. As for the experimental part:
(§1) Human corneal epithelial cells at approximately 80% confluence were treated with 0%, 0.001%, 0.01%, or 0.1% BAK for 15 minutes. After 3 and 24 hours of recovery in culture medium, cell proliferation was measured using a colorimetric BrdU incorporation assay. Apoptosis was measured using a colorimetric annexin-based cell death assay. […] To further assess the ability of Tb4 to prevent apoptosis, corneal epithelial cells were treated with 0.01% BAK±Tβ4 over a 5 day time course.

Experiment [2] deals with Human corneal epithelial cells. In words: colorimetric BrdU incorporation assay (cell proliferation). It counts as cell-based. Conditions: 1 mcg/ml Tβ4, 3 and 24 hour time points. As for the experimental part:
as §1
(Dividing cells build labelled thymidine or BrdU into new DNA.)

As for “Thymosin beta 4 (SDKPDMAEIEKFDKSKLKKTETQEKNPLPSKETIEQEKQAGES; Thymosin beta-4; UniProt P62328 2-44, looked up) [Tβ4, a 43 amino acid, 4.9 kDa ubiquitous polypeptide originally isolated from the thymus]”, the “apoptosis of BAK-treated corneal epithelial cells” value in experiment [1] is given as “not inhibited”. In addition, the “cell proliferation of BAK-treated corneal epithelial cells” value in experiment [2] is “not promoted”.
